Measurements as given in US20260146035A1, “FUSED BICYCLIC COMPOUNDS AND THEIR USE AS MER AND AXL INHIBITORS” (DONG-A ST CO., LTD., priority 2022, published 2026).
pIC50: −log10 of the molar value.

Tests used:
human MER (528-end) = target: T1, human MER (528-end) (Homo sapiens, UniProt Q12866); test: HTRF kinase activity biochemical assay, MER; settings: 10 μM ATP, 30 minutes pre-incubation; read-out: HTRF MERTK IC50
T1 construct: human MER (528-end); purchased Camnabio, Japan
T1 sequence (Q12866 528-999 limits assumed): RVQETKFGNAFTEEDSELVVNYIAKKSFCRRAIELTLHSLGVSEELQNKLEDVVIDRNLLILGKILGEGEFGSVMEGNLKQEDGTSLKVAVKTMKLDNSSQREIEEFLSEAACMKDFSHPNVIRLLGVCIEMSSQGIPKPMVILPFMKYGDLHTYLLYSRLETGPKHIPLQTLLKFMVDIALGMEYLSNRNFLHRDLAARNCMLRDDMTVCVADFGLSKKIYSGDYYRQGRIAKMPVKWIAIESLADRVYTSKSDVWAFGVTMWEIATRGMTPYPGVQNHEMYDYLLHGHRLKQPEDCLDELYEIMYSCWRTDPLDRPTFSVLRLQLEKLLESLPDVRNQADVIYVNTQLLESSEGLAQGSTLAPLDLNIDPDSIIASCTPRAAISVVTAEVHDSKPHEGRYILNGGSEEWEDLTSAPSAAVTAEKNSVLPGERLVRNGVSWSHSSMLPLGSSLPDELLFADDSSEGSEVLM
Protocol: (§1) For the SAR (structure-activity relationship) and compound screening, HTRF (Homogeneous Time Resolved Fluorescence) kinase activity assay was employed for all MER, AXL and TYRO3 kinases using Cisbio HTRF® KinEASE™-TK kit (Cisbio, USA). The kit included biotin-labeled TK substrate, streptavidin-XL665, Eu3+-cryptate-labeled TK antibody and HTRF® Detection buffer. There are two main steps in the kinase assay: kinase reaction and detection of phosphorylated substrate. The reaction was carried out in white low volume 384-well plate (Corning, USA) with 25 nL compound in dimethyl sulfoxide in each well. […] After 1 hour incubation at room temperature, the fluorescence intensity was measured with Envision[…] plate reader (PerkinElmer, USA). Upon excitation at 340 nm by UV, the energy from Eu3+ donor of the antibody is transferred to the FRET acceptor XL665, and […] emits light at 665 nm.

human AXL (473-end) = target: T2, human AXL (473-end) (Homo sapiens, UniProt P30530); test: HTRF kinase activity biochemical assay, AXL; settings: 10 μM ATP, 30 minutes pre-incubation
T2 construct: human AXL (473-end); purchased SignalChem, Canada
T2 sequence (P30530 473-894 limits assumed): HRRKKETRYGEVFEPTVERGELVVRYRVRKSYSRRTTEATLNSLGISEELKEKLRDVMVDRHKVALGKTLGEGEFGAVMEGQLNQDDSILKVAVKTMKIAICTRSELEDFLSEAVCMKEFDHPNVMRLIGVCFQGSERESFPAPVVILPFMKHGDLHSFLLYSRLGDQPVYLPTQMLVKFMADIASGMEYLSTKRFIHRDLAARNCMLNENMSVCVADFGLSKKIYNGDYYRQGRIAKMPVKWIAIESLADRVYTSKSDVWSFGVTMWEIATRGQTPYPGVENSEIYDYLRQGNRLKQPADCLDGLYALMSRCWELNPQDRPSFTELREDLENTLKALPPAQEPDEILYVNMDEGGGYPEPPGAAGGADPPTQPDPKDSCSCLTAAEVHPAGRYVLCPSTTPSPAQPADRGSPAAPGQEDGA
Protocol: as §1

human TYRO3 (455-end) = target: T3, human TYRO3 (455-end) (Homo sapiens, UniProt Q06418); test: HTRF kinase activity biochemical assay, TYRO3; settings: 10 μM ATP, 30 minutes pre-incubation; read-out: HTRF TYRO IC50
T3 construct: TYRO3 (455-end); purchased SignalChem, Canada
T3 sequence (Q06418 455-890 limits assumed): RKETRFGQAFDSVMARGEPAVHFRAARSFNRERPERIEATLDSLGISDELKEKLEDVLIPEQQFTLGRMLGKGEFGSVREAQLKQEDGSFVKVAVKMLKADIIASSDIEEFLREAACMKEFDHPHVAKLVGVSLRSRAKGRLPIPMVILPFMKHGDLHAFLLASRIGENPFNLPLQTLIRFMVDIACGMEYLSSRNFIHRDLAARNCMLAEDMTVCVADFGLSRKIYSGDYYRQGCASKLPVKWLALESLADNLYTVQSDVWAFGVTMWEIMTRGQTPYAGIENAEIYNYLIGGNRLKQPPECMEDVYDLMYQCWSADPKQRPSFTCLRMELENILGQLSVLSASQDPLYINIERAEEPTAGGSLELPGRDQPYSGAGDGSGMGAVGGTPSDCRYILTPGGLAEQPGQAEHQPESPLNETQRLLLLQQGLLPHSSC
Protocol: as §1

Row | SMILES | pIC50 (human MER (528-end)) | pIC50 (human AXL (473-end)) | pIC50 (human TYRO3 (455-end))
1 | CC1(C)CN(C2CCN(CCO)CC2)c2ccc(-c3ccc(CO[C@H]4COC[C@@H]4NC(=O)c4cc(-c5cncc(F)c5)cnc4N)cc3)cc21 [Example 44, 6-amino-5′-fluoro-N-{(3S,4R)-4-[(4-{1-[1-(2-hydroxyethyl)piperidin-4-yl]-3,3-dimethyl-2,3-dihydro-1H-indol-5-yl}phenyl)methoxy]oxolan-3-yl}[3,3′-bipyridine]-5-carboxamide] | > 8.00 | 6.00 to 7.00 | 6.00 to 7.00
2 | Cn1cc(-c2cnc(N)c(C(=O)N[C@H]3COC[C@@H]3OCc3ccc(-c4ccc5c(ccn5C5CCN(CCO)CC5)c4)cc3)c2)cn1 [Example 14, 2-amino-N-{(3S,4R)-4-[(4-{1-[1-(2-hydroxyethyl)piperidin-4-yl]-1H-indol-5-yl}phenyl)methoxy]oxolan-3-yl}-5-(1-methyl-1H-pyrazol-4-yl)pyridine-3-carboxamide] | > 8.00 | 7.00 to 8.00 | < 6.00
3 | Cn1ccc(-c2cnc(N)c(C(=O)N[C@H]3CCC[C@@H]3OCc3ccc(-c4ccc5c(c4)C(C)(C)CN5C4CCN(CCO)CC4)cc3)c2)cc1=O [Example 30, 6-amino-N-{(1S,2S)-2-[(4-{1-[1-(2-hydroxyethyl)piperidin-4-yl]-3,3-dimethyl-2,3-dihydro-1H-indol-5-yl}phenyl)methoxy]cyclopentyl}-1′-methyl-2′-oxo-1′,2′-dihydro[3,4′-bipyridine]-5-carboxamide] | > 8.00 | > 8.00 | 7.00 to 8.00
4 | CC1(C)CN(C2CCN(CCO)CC2)c2ccc(-c3ccc(CO[C@H]4COC[C@@H]4NC(=O)c4cc(-c5cccnc5F)cnc4N)cc3)cc21 [Example 49, 6-amino-2′-fluoro-N-{(3S,4R)-4-[(4-{1-[1-(2-hydroxyethyl)piperidin-4-yl]-3,3-dimethyl-2,3-dihydro-1H-indol-5-yl}phenyl)methoxy]oxolan-3-yl}[3,3′-bipyridine]-5-carboxamide] | > 8.00 | > 8.00 | 6.00 to 7.00
5 | CC1(C)CC(N2CCN(CCO)CC2)c2ccc(-c3ccc(CO[C@H]4CCC[C@@H]4NC(=O)c4cc(C(F)(F)F)cnc4N)cc3)cc21 (stereo partly drawn) [Example 130, 2-amino-N-{(1S,2S)-2-[(4-{1-[4-(2-hydroxyethyl)piperazin-1-yl]-3,3-dimethyl-2,3-dihydro-1H-inden-5-yl}phenyl)methoxy]cyclopentyl}-5-(trifluoromethyl)pyridine-3-carboxamide] | > 8.00 | > 8.00 | 6.00 to 7.00
6 | Cc1cc2cc(-c3ccc(CO[C@H]4CCC[C@@H]4NC(=O)c4cc(-c5cnn(C)c5)cnc4N)cc3)ccc2[nH]1 [Example 56, 2-amino-N-[(1S,2S)-2-{[4-(2-methyl-1H-indol-5-yl)phenyl]methoxy}cyclopentyl]-5-(1-methyl-1H-pyrazol-4-yl)pyridine-3-carboxamide] | 7.00 to 8.00 | 7.00 to 8.00 | < 6.00
7 | CN1CCC(N2CC(C)(C)c3cc(-c4ccc(CO[C@H]5CCC[C@@H]5NC(=O)c5cc(-c6cnn(C)c6)cnc5N)cc4)ccc32)CC1 [Example 12, 2-amino-N-[(1S,2S)-2-({4-[3,3-dimethyl-1-(1-methylpiperidin-4-yl)-2,3-dihydro-1H-indol-5-yl]phenyl}methoxy)cyclopentyl]-5-(1-methyl-1H-pyrazol-4-yl)pyridine-3-carboxamide] | > 8.00 | > 8.00 | 7.00 to 8.00
8 | Cn1cc(-c2cnc(N)c(C(=O)N[C@H]3CCC[C@@H]3OCc3ccc(-c4cccc5cc[nH]c45)cc3)c2)cn1 [Example 29, 2-amino-N-[(1S,2S)-2-{[4-(1H-indol-7-yl)phenyl]methoxy}cyclopentyl]-5-(1-methyl-1H-pyrazol-4-yl)pyridine-3-carboxamide] | 7.00 to 8.00 | 6.00 to 7.00 | < 6.00

Now from value to compound:

Row | pIC50 (human MER (528-end)) | pIC50 (human AXL (473-end)) | pIC50 (human TYRO3 (455-end)) | SMILES
9 | > 8.00 | > 8.00 | 6.00 to 7.00 | CN1CCN([C@H]2CCc3cc(-c4ccc(CO[C@H]5CCC[C@@H]5NC(=O)c5cc(-c6ccc(C#N)nc6)cnc5N)cc4)ccc32)CC1 [Example 154, 6-amino-6′-cyano-N-[(1S,2S)-2-({4-[(1S)-1-(4-methylpiperazin-1-yl)-2,3-dihydro-1H-inden-5-yl]phenyl}methoxy)cyclopentyl][3,3′-bipyridine]-5-carboxamide]
10 | > 8.00 | > 8.00 | 7.00 to 8.00 | Cn1cc(-c2cnc(N)c(C(=O)N[C@H]3CCC[C@@H]3OCc3ccc(-c4ccc5c(c4)CCCC5N4CCNCC4)cc3)c2)cn1 (stereo partly drawn) [Example 122, 2-amino-5-(1-methyl-1H-pyrazol-4-yl)-N-[(1S,2S)-2-({4-[5-(piperazin-1-yl)-5,6,7,8-tetrahydronaphthalen-2-yl]phenyl}methoxy)cyclopentyl]pyridine-3-carboxamide]
11 | > 8.00 | > 8.00 | 6.00 to 7.00 | Cn1ccc(-c2cnc(N)c(C(=O)N[C@H]3CCC[C@@H]3OCc3ccc(-c4ccc5c(c4)CC(F)(F)C5N4CCN(CC(O)CO)CC4)cc3)c2)cc1=O (stereo partly drawn) [Example 63, 6-amino-N-{(1S,2S)-2-[(4-{1-[4-(2,3-dihydroxypropyl)piperazin-1-yl]-2,2-difluoro-2,3-dihydro-1H-inden-5-yl}phenyl)methoxy]cyclopentyl}-1′-methyl-2′-oxo-1′,2′-dihydro[3,4′-bipyridine]-5-carboxamide]
12 | > 8.00 | > 8.00 | 7.00 to 8.00 | Cc1nc(-c2cnc(N)c(C(=O)N[C@H]3CCC[C@@H]3OCc3ccc(-c4ccc5c(c4)CC[C@@H]5N4CCN(CCO)CC4)cc3)c2)cs1 [Example 180, 2-amino-N-{(1S,2S)-2-[(4-{(1S)-1-[4-(2-hydroxyethyl)piperazin-1-yl]-2,3-dihydro-1H-inden-5-yl}phenyl)methoxy]cyclopentyl}-5-(2-methyl-1,3-thiazol-4-yl)pyridine-3-carboxamide]
13 | > 8.00 | > 8.00 | 6.00 to 7.00 | CC1(C)C[C@@H](N2CCN(CCO)CC2)c2ccc(-c3ccc(CO[C@H]4CCC[C@@H]4NC(=O)c4cc(-c5cccnc5F)cnc4N)cc3)cc21 [Example 135, 6-amino-2′-fluoro-N-{(1S,2S)-2-[(4-{(1R)-1-[4-(2-hydroxyethyl)piperazin-1-yl]-3,3-dimethyl-2,3-dihydro-1H-inden-5-yl}phenyl)methoxy]cyclopentyl}[3,3′-bipyridine]-5-carboxamide]
14 | > 8.00 | > 8.00 | 6.00 to 7.00 | COc1c(-c2cnn(C)c2)cnc(N)c1C(=O)N[C@H]1CCC[C@@H]1OCc1ccc(-c2ccc3c(c2)CC[C@@H]3N2CCN(C)CC2)cc1 [Example 157, 2-amino-4-methoxy-N-[(1S,2S)-2-({4-[(1S)-1-(4-methylpiperazin-1-yl)-2,3-dihydro-1H-inden-5-yl]phenyl}methoxy)cyclopentyl]-5-(1-methyl-1H-pyrazol-4-yl)pyridine-3-carboxamide]
15 | > 8.00 | > 8.00 | 7.00 to 8.00 | CN1CCN(C2CC(C)(C)c3cc(-c4ccc(CO[C@H]5CCC[C@@H]5NC(=O)c5cc(-c6cccnc6F)cnc5N)cc4)ccc32)CC1 (stereo partly drawn) [Example 108, 6-amino-N-[(1S,2S)-2-({4-[3,3-dimethyl-1-(4-methylpiperazin-1-yl)-2,3-dihydro-1H-inden-5-yl]phenyl}methoxy)cyclopentyl]-2′-fluoro[3,3′-bipyridine]-5-carboxamide]
